# Key:
# [1] = system: serotonine and 5-hydroxy-indolylacetic acid levels of the cerebrum; test: Serotonine and 5-hydroxy-indolylacetic acid levels of the cerebrum (brain) in rats, % of controls; type: in vivo, male Wistar rats
# Experimental: (§1) The tests were performed on male Wistar rats weighing 150 to 200 g. The dopamine-β-hydroxylase inhibiting effects of the compounds were evaluated by determining the change of noradrenaline, dopamine and adrenaline levels of the cerebrum, heart, spleen and adrenal gland. The serotonine and 5-hydroxy-indolylacetic acid levels of the cerebrum were also determined. The measurements were performed as follows:
# (§2) The animals were decapitated, the cerebrum, heart, spleen and adrenal gland were removed quickly, and the organs were frozen by placing them on a metal sheet cooled with dry ice. The frozen organs were stored for a maximum of one night at -20° C.
# In a further test series the serotonine and 5-hydroxy-indolylacetic acid contents were also determined, in addition to the determination of the noradrenaline and dopamine content, from the same sample. In this instance the brains were homogenized in 10 ml of 75% ethanol, 0.2 ml of EDTA-Na2 and 5% of ascorbic acid were added to the homogenized mixtures, and the homogenized mixtures were maintained at -20° C. overnight. The mixtures were centrifuged as described above, and 5.0 ml samples of the supernatant were removed. The samples were diluted with equal volumes of distilled water, and poured onto ion exchange columns of 0.5×1.5 cm dimensions, filled with buffered Amberlite CG-30 (200 to 400 mesh). The columns were washed with 5 ml of distilled water followed by 1.0 ml of 0.2 N hydrochloric acid, and the first effluent and the aqueous wash were collected for the determination of 5-hydroxy-indolylacetic acid. Elution was continued with a further 1.2 ml quantity of 0.2 N hydrochloric acid in order to remove noradrenaline, dopamine and serotonine. Samples of 0.3 ml were used for the determinations.
# Noradrenaline and dopamine were determined by the method of Shellenberger, modified as described above, whereas serotonine was determined by the method of Curzon et al. (Brit. J. Pharmacol. 39, 653 (1970)). The basic method was modified as follows: A 0.5% solution of ortho-phthal(di)aldehyde in absolute ethanol was diluted with […] hydrochloric acid to 50-fold of its original volume, and 0.6 ml of the resulting 0.01% ortho-phthal(di)aldehyde solution were added immediately to 0.5 ml of the serotonine-containing sample. The sample was placed in a hot water bath for 10 minutes, thereafter cooled with tap water, and the flourescence was recorded at wavelengths of 360 nm (excitation) and 490 nm (emission).
# 5-Hydroxy-indolylacetic acid was determined from the mixture of the first effluent and the aqueous wash. 10 ml of distilled water and 0.2 ml of concentrated hydrochloric acid were added to the mixture, and the sample was poured onto a 0.8×4.0 cm column filled with Sephadex G-10. The column was washed with 15 ml of 0.1 N hydrochloric acid followed by 1.8 to 2.0 ml of 0.02 N aqueous ammonia, and then 5-hydroxy-indolylacetic acid was eluted with further 2.0 ml of the aqueous ammonia. 0.5 ml samples were used in the measurements, and the determination was performed according to the method of Korf et al. (Biochem. Pharmacol. 20, 659 (1971)).
# (§3) In the tests disulfiram, 2,2-dipyridyl, bis(1-methyl-4-homopiperazinyl-thiocarbonyl)-disulfide, sodium diethyldithiocarbamate and N-phenyl-N'-(2-thiazolyl)-thiourea were used as reference substances. The values indicated in Table 1 are the percentages in relation to the amine levels of the controls measured in the same tests (±standard error). The statistical calculations were performed on a TPA/i type computer, using Student's t test.
# dopamine-β-hydroxylase [2] = test: Noradrenaline and dopamine levels of the cerebrum (brain) in rats, % of controls; type: in vivo, male Wistar rats; conditions: rat, 4 hours
# Experimental: (§4) The dopamine-β-hydroxylase inhibiting effects of the new compounds according to the invention were examined by the following tests:
# as §1, §2
# (§5) The organs were weighed in the frozen state and then homogenized in 5.0 ml of 0.4 N perchloric acid containing 0.05% of EDTA-Naa and 0.1% of Na2 S2 O5. The homogenized mixtures were centrifuged as described above for the treatment of adrenal gland, the supernatants were decanted, and the pH was adjusted to 8.0±0.1 with a 0.1 molar tris buffer containing 20 g/l of NaOH and 25 g/l of EDTA-Na2. 100 mg of prepared Al2 O3 (Anton et al.: J. Pharm. Ther. 138, 360 (1962)) were added to the samples, and the mixtures were shaken mechanically for 20 minutes. Thereafter the Al2 O3 was washed with 2×10 ml of distilled water, and noradrenaline was eluted with 1.0 ml of 0.05 N perchloric acid. 0.5 ml samples of the eluate were used for the determination of noradrenaline. Noradrenaline was determined according to the method of Shellenberger et al. (Anal. Biochem. 39, 356 (1971)), with the following modifications of the basic procedure: 0.5 ml of 0.1 molar Na-K-phosphate buffer, containing 9 g/l of EDTA-Na2, were added to 0.5 ml of the eluate, and the catecholamines (noradrenaline in the examination of heart and spleen and noradrenaline and dopamine in the examination of the cerebrum) were oxidized with 0.1 ml of a 0.1 N iodine solution in 5% potassium iodide. After exactly 2 minutes, oxidation was stopped by adding 0.25 ml of a 2.5% sodium sulfite solution in 4.4 N aqueous sodium hydroxide to the mixture. 2 minutes after the introduction of the alkaline sulfite solution, 0.2 ml of concentrated acetic acid was added to the samples, whereupon the pH decreased to 4.4 to 4.5. Thereafter the samples were placed for 5 minutes in a drying oven heated to 100° C., and then the samples were cooled with ice water. The fluorescency of noradrenaline was measured with an OPTON spectrophotometer at wavelengths of 380 nm (excitation) and 490 nm (emission).
# The brains were homogenized in 10 parts by volume of 0.4 N perchloric acid. The homogenized mixture was stored at -20° C. overnight; thereafter it was thawed and centrifuged as described above. A sample of the homogenized mixture corresponding to 0.5 g of brain was removed, the pH of the sample was adjusted to 8.0±0.1 with 0.1 molar tris-buffer of the above composition, and the sample was processed as described above for the determination of the noradrenaline content of heart and spleen, with the difference that 1.5 ml of 0.05 N perchloric acid was used as the eluting agent. 0.5 ml of the eluate was used to determine the noradrenaline and dopamine contents. The measurement was performed as described above, with the difference that samples of 0.5 ml were applied for the recording of the flourescence of noradrenaline. The residue was placed for 50 minutes into a drying oven heated to 100° C., thereafter the sample was cooled with ice water, and the fluorescence of dopamine was recorded at wavelengths of 325 nm (excitation) and 380 nm (emission).
# In a further test series the serotonine and 5-hydroxy-indolylacetic acid contents were also determined, in addition to the determination of the noradrenaline and dopamine content, from the same sample. […]
# in vivo = conditions: mouse, in vivo, mice
# dopamine-β-hydroxylase [3] = conditions: literature, cited from earlier work
# dopamine-β-hydroxylase [4] = test: Noradrenaline level of heart in rats, % of controls; type: in vivo, male Wistar rats; conditions: rat, 4 hours
# Experimental: as §4, §1, §2, §5, §3
# dopamine-β-hydroxylase [5] = test: Noradrenaline level of spleen in rats, % of controls; type: in vivo, male Wistar rats; conditions: rat, i.p., 4 hours
# Experimental: as §4
# as §1, with “follows: […]” for “follows:”
# The organs were weighed in the frozen state and then homogenized in 5.0 ml of 0.4 N perchloric acid containing 0.05% of EDTA-Naa and 0.1% of Na2 S2 O5. […] Noradrenaline was determined according to the method of Shellenberger et al. (Anal. Biochem. 39, 356 (1971)), with the following modifications of the basic procedure: 0.5 ml of 0.1 molar Na-K-phosphate buffer, containing 9 g/l of EDTA-Na2, were added to 0.5 ml of the eluate, and the catecholamines (noradrenaline in the examination of heart and spleen and noradrenaline and dopamine in the examination of the cerebrum) were oxidized with 0.1 ml of a 0.1 N iodine solution in 5% potassium iodide. […] The fluorescency of noradrenaline was measured with an OPTON spectrophotometer at wavelengths of 380 nm (excitation) and 490 nm (emission). […]
# dopamine-β-hydroxylase [6] = test: Adrenaline level of adrenal gland in rats, % of controls; type: in vivo, male Wistar rats; conditions: rat, 4 hours
# Experimental: as §4, §1, §2
# The adrenal glands were freed from fat and homogenized in 3.0 ml of ice-cold 0.4 N perchloric acid. The homogenized mixtures were centrifuged for 10 minutes at 0° C. with a speed of 3200 r.p.m. using a Janetzky K-70 type centrifuge. 0.05 ml samples were taken from the supernatant, and the adrenaline level was determined directly by the method of Laverty et al. (Anal. Biochem. 22, 269 (1968)).
# as §3
# Toxicity, LD50, rabbits = conditions: rabbit, in vivo, po
# Toxicity, LD50, rats = conditions: rat, in vivo, po
# mice = test: in vivo
molecule,measurement,setting,value
"c1ccc(-c2ccccn2)nc1 [2,2-D, 2,2-dipyridyl]",response vs control in vivo at 75 mg/kg,"[1]; Rattus norvegicus, ip, 4 h, read-out: Brain SE level (percentages in relation to the controls)",100%
same,Brain DA level (percentages in relation to the controls),"dopamine-β-hydroxylase [2]; i.p., 37.5 mg/kg",116%
same,Brain NA level (percentages in relation to the controls),"dopamine-β-hydroxylase [2]; i.p., 37.5 mg/kg",79.5%
same,Brain DA level (percentages in relation to the controls),"dopamine-β-hydroxylase [2]; i.p., 75 mg/kg",95%
same,Brain NA level (percentages in relation to the controls),"dopamine-β-hydroxylase [2]; i.p., 75 mg/kg",41.2%
same,LD50,in vivo; ip,280 mg/kg
same,"dopamine-β-hydroxylase inhibition in vitro, in words",dopamine-β-hydroxylase [3]; in vitro conditions,effective under in vitro conditions
same,Heart NA level (percentages in relation to the controls),"dopamine-β-hydroxylase [4]; i.p., 37.5 mg/kg",104%
same,Heart NA level (percentages in relation to the controls),"dopamine-β-hydroxylase [4]; i.p., 75 mg/kg",58%
same,Spleen NA level (percentages in relation to the controls),dopamine-β-hydroxylase [5]; 37.5 mg/kg,100%
same,Adrenal gland adrenaline level (% of controls),"dopamine-β-hydroxylase [6]; i.p., 37.5 mg/kg",80%
same,Adrenal gland adrenaline level (% of controls),"dopamine-β-hydroxylase [6]; i.p., 75 mg/kg",63%
"CCN(CC)C(=S)SSC(=S)N(CC)CC [DS, bis(diethylthiocarbamoyl)-disulfide]",Brain SE level (percentages in relation to the controls),"[1]; rat, i.p., 200 mg/kg, 4 hours",122%
same,Brain SE level (percentages in relation to the controls),"[1]; rat, i.p., 400 mg/kg, 4 hours",117%
same,Brain DA level (percentages in relation to the controls),"dopamine-β-hydroxylase [2]; i.p., 200 mg/kg",111%
same,Brain NA level (percentages in relation to the controls),"dopamine-β-hydroxylase [2]; i.p., 200 mg/kg",22.5%
same,Brain DA level (percentages in relation to the controls),"dopamine-β-hydroxylase [2]; i.p., 400 mg/kg",112%
same,Brain NA level (percentages in relation to the controls),"dopamine-β-hydroxylase [2]; i.p., 400 mg/kg",24.1%
same,"dopamine-β-hydroxylase inhibiting effects, in words",dopamine-β-hydroxylase [3]; known compounds,strong dopamine-β-hydroxylase inhibiting effects
same,LD50,"Toxicity, LD50, rabbits",1800 ± 130 mg/kg
same,LD50,"Toxicity, LD50, rats",8600 ± 370 mg/kg
same,Heart NA level (percentages in relation to the controls),"dopamine-β-hydroxylase [4]; i.p., 200 mg/kg",98%
same,Heart NA level (percentages in relation to the controls),"dopamine-β-hydroxylase [4]; i.p., 400 mg/kg",102%
same,Adrenal gland adrenaline level (% of controls),"dopamine-β-hydroxylase [6]; i.p., 200 mg/kg",52%
same,Adrenal gland adrenaline level (% of controls),"dopamine-β-hydroxylase [6]; i.p., 400 mg/kg",66%
"CCCCNC1=C(C([O-])=S)CCC1.CCCCNC1=C(C([O-])=S)CCC1.[Zn+2] [M-3, 2-(N-butyl)-amino-cyclopent-1-ene-thiocarboxylic acid (zinc salt)]",Brain DA level (percentages in relation to the controls),"dopamine-β-hydroxylase [2]; i.p., 50 mg/kg",112.2 ± 12.0%
same,Brain NA level (percentages in relation to the controls),"dopamine-β-hydroxylase [2]; i.p., 50 mg/kg",85.0 ±9.1%
same,Brain DA level (percentages in relation to the controls),"dopamine-β-hydroxylase [2]; i.p., 100 mg/kg",121.3 ± 6.1%
same,Brain NA level (percentages in relation to the controls),"dopamine-β-hydroxylase [2]; i.p., 100 mg/kg",73.5 ± 3.2%
same,Brain DA level (percentages in relation to the controls),"dopamine-β-hydroxylase [2]; p.o., 500 mg/kg",99.2 ±5.0%
same,Brain NA level (percentages in relation to the controls),"dopamine-β-hydroxylase [2]; p.o., 500 mg/kg",98.9 ±2.5%
same,LD50,mice; i.p.,~ 450 mg/kg
same,Heart NA level (percentages in relation to the controls),"dopamine-β-hydroxylase [4]; i.p., 50 mg/kg",84.5±4.1%
same,Heart NA level (percentages in relation to the controls),"dopamine-β-hydroxylase [4]; i.p., 100 mg/kg",91.5 ± 8.1%
same,Heart NA level (percentages in relation to the controls),"dopamine-β-hydroxylase [4]; p.o., 500 mg/kg",108.8 ±3.2%
same,Adrenal gland adrenaline level (% of controls),"dopamine-β-hydroxylase [6]; i.p., 50 mg/kg",66.3%
same,Adrenal gland adrenaline level (% of controls),"dopamine-β-hydroxylase [6]; i.p., 100 mg/kg",60.5 ± 3.6%
same,Adrenal gland adrenaline level (% of controls),"dopamine-β-hydroxylase [6]; p.o., 500 mg/kg",100.3 ±8.3%
"S=C(Nc1ccccc1)Nc1nccs1 [U-14624, N-phenyl-N'-(2-thiazolyl)-thiourea]",Brain 5-HIAA level (percentages in relation to the controls),"[1]; rat, i.p., 200 mg/kg, 4 hours",175%
same,Brain SE level (percentages in relation to the controls),"[1]; rat, i.p., 200 mg/kg, 4 hours",137%
same,Brain DA level (percentages in relation to the controls),"dopamine-β-hydroxylase [2]; i.p., 200 mg/kg",121%
same,Brain NA level (percentages in relation to the controls),"dopamine-β-hydroxylase [2]; i.p., 200 mg/kg",31.6%
same,LD50,in vivo; ip,~680 mg/kg
same,LD50,in vivo; po,> 1000 mg/kg
same,Heart NA level (percentages in relation to the controls),"dopamine-β-hydroxylase [4]; i.p., 200 mg/kg",106%
same,Spleen NA level (percentages in relation to the controls),dopamine-β-hydroxylase [5]; 200 mg/kg,111%
same,Adrenal gland adrenaline level (% of controls),"dopamine-β-hydroxylase [6]; i.p., 200 mg/kg",72%
Chlorofusaric acid,LD50,mice; p.o.,470 ± 85 mg/kg

# — patent US4179467A, “Dopamine hydroxylase inhibiting 2-amino-cyclopent-1-ene-1-thiocarboxylic acid-disulfides” (Richter Gedeon Vegyeszeti Gyar Rt., priority 1976, dated 1979)
